{
  "source": "patent EP1566447A1",
  "about": "“Glimepiride- and insulin-induced glycosylphosphatidylinositol-specific phospholipase C regulation” (priority 2004, dated 2005)",
  "key": {"bacterial PC-PLC": {"target": "T1, bacterial PC-PLC (Bacillus cereus, UniProt P09598)", "T1 construct": "purchased Sigma/Aldrich (Deisenhofen, Germany)", "T1 sequence (P09598 39-283 limits assumed)": "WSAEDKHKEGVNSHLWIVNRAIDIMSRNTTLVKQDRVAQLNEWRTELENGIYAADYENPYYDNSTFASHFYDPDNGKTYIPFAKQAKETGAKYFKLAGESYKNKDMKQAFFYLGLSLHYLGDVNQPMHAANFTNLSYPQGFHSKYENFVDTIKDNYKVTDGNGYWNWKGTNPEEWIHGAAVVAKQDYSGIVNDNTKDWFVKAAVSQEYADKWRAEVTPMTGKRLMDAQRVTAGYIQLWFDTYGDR", "assay": "selectivity: PC-PLC assay", "type": "biochemical", "conditions": "50 µM"}, "[1]": {"target": "phospholipase A2 (honey bee venom) (Apis mellifera, UniProt P00630)", "sequence (P00630 34-167 limits assumed)": "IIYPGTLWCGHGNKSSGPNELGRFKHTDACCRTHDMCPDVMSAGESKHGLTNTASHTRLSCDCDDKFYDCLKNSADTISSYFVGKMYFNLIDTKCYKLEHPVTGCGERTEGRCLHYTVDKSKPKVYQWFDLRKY", "type": "biochemical", "conditions": "50 µM"}, "rat adipocytes": {"test_system": "rat adipocytes", "assay": "glucose transport assay", "type": "cell-based", "procedure": "Glucose transport was determined as described in \"Müller, G. et al., (1994) J. Cell Biol. 126: 1267-1276\" by incubation of 10,000-20,000 washed adipocytes with 2-deoxy-D-[2,6-^3H]glucose at 50 µM final conc. (0.33 µCi/ml) in 50-µl portions for 20 min at 37°C in the absence or presence of 20 µM cytochalasin B.\nTable 3: Isolated rat adipocytes were incubated in the presence of methyl-β-cyclodextrin (m-β-CD, 10 mM, 50 min), CBDP (300 µM, electroporation, followed by washing and subsequent incubation for 30 min), PIG41 (10 µM, 15 min), sodium orthovanadate (1 mM, 15 min), trypsin (10 µg/ml, 15 min followed by treatment with 0.5 M NaCl and subsequent washing) and N-ethylmaleimide (1 mM, 5 min followed by addition of DTT). After addition of GPI-2350 (50 µM final conc.) to one half of the adipocyte suspension and further incubation (60 min, 37°C), portions of the cells were assayed for 5'-Nuc activity in the isolated IcDIGs. The increase in 5'-Nuc during the basal incubation was set at 100 arb. units. Other portions of the cells (after 15 min incubation) were assayed for glucose transport which was set at 100 arb. units for the basal incubation. Means ± SD of at least 3 independent cell incubations with activity measurements in triplicate each are given.\nFig. 8: Effect of GPI-2350 on the glimepiride/insulin-induced metabolic activity. Isolated rat adipocytes were treated (5 min, 37°C) without or with GPI-2350 (Panel A, 50 µM; Panel B, increasing conc.; Panel C, 5 µM, 50 µM) and then incubated (15 min, 37°C) in the absence or presence of insulin (Ins, 10 nM) or glimepiride (Gli, 20 µM or increasing conc.) as indicated. The adipocytes were then assayed for glucose transport and isoproterenol-induced lipolysis. The activity is given relative to the absence of GPI-2350 in the control reaction (Panels A, basal) or in the insulin- and glimepiride-stimulated state (Panels B and C, set at 100). Means ± SD of at least 5 independent cell incubations with activity measurements in triplicate each are given."}, "IRS-1 and pp59^Lyn": {"test_system": "IRS-1 and pp59^Lyn", "assay": "tyrosine phosphorylation of pp59^Lyn and IRS-1", "type": "cell-based, rat", "procedure": "Polypeptides separated by SDS-PAGE were transferred to polyvinylidene difluoride membranes using the semidry procedure as described in \"Müller, G. et al., (2001) Mol. Cell. Biol. 21: 4553-4567\". Washed membranes were incubated anti-caveolin-1 (1:2000), anti-pp59^Lyn (1:1250), anti-aP (1:500), anti-5'-Nuc (1:750) and anti-IRS-1 (1:2000) antibodies for 4 h at 15°C. Washed membranes were incubated with horseradish peroxidase-coupled secondary goat anti-mouse (1:2000) or goat anti-rabbit IgG (1:4000) antibodies. Labeled proteins were visualized by enhanced chemiluminescence.\nFig. 7: Effect of GPI-2350 on the glimepiride/insulin-induced activation of signaling proteins. Isolated rat adipocytes were treated (5 min, 37°C) without or with GPI-2350 (Panels A, 50 µM; Panels B, increasing conc.) and then incubated (120 min, 37°C) in the absence or presence of insulin (10 nM) or glimepiride (20 µM). IRS-1 and pp59^Lyn were immunoprecipitated from the defatted postnuclear infranatant (see Materials and Methods) and solubilized combined hc/IcDIGs, respectively, and then immunoblotted for phosphotyrosine. […]"}},
  "note": "Entries after “also recorded” stand apart in the source; their conditions may differ.",
  "data": [
    {"compound": "CCCCCCCCCCCCP1(=O)O[C@@H]2[C@H](O)[C@@H](O)[C@H](O)[C@@H](O)[C@@H]2O1", "note": "(mixture of isomers) [GPI-2350, myo-inositol-1,2-cyclo-dodecylphosphonic acid]", "values": [
      {"measurement": "effect on phospholipase activity", "setting": "bacterial PC-PLC", "value": "not significantly affected"},
      {"measurement": "effect on phospholipase activity", "setting": "[1]", "value": "not significantly affected"},
      {"measurement": "effect on stimulation of glucose transport in response to glimepiride", "setting": "rat adipocytes; 50 µM", "value": "almost complete blockade; also recorded: lower than control values"},
      {"measurement": "IC50", "setting": "rat adipocytes; Rattus norvegicus, Adipocyte", "value": "2 to 5", "unit": "µM"},
      {"measurement": "inhibition at 50 µM", "setting": "rat adipocytes; Rattus norvegicus, Adipocyte, 50 µM, insulin 10 nM, read-out: reduction of insulin stimulation of glucose transport", "value": "≤ 25", "unit": "%"},
      {"measurement": "effect on tyrosine phosphorylation of pp59^Lyn and IRS-1 in response to glimepiride", "setting": "IRS-1 and pp59^Lyn; 50 µM", "value": "almost complete blockade"},
      {"measurement": "effect on metabolic insulin signaling (tyrosine phosphorylation of IRS-1 and inhibition of lipolysis)", "setting": "IRS-1 and pp59^Lyn; insulin-stimulated", "value": "only marginally reduced"}
    ]}
  ]
}
